Assay results reported in paper PMC12298624, “Anti-Infective Properties, Cytotoxicity, and In Silico ADME Parameters of Novel 4′-(Piperazin-1-yl)benzanilides” (Pharmaceuticals, 2025).
Read-outs that look alike come from different tables or passages of the source.

Columns and labels:
[1] = test system: P. falciparum NF54; assay: In vitro microplate assay against P. falciparum NF54 (3H-hypoxanthine incorporation); assay type: cell-based, Plasmodium falciparum; settings: Plasmodium falciparum, NF54, chloroquine-sensitive strain NF54, erythrocytic stages; read-out: P.f.NF54 IC50
Method: Serial drug dilutions of eleven 3-fold dilution steps covering a range from 100 to 0.002 µg/mL were prepared. […] After 48 h of incubation time, 0.05 mL of ^3H-hypoxanthine (=0.5 µCi) was added to each well of the plate. The plates were incubated for a further 24 h under the same conditions. Plates were then harvested using a BetaplateTM cell harvester (Wallac, Zurich, Switzerland). Red blood cells were transferred onto a glass fiber filter and then washed with distilled aqua demin. The dried filters were inserted into a plastic foil with 10 mL of scintillation fluid and counted in a BetaplateTM liquid scintillation counter (Wallac, Zurich, Switzerland). IC50 values were calculated from sigmoidal inhibition curves by linear regression using Microsoft Excel. […] Louis, MO, USA) was used as control.

[2] = Resazurin-based in vitro cytotoxicity with L-6 cells; assay type: cell-based, rat; settings: rat
Method: Serial drug dilutions of eleven 3-fold dilution steps covering a range from 100 to 0.002 µg/mL were prepared. After 70 h of incubation, the plates were inspected under an inverted microscope to assure growth of the controls and sterile conditions. […] The plates were read with a Spectramax Gemini XS microplate fluorometer (Molecular Devices Cooperation, Sunnyvale, CA, USA) using an excitation wavelength of 536 nm and an emission wavelength of 588 nm. IC50 values were calculated by linear regression from the sigmoidal dose–inhibition curves using SoftmaxPro software Version 8.2.1 (Molecular Devices Cooperation, Sunnyvale, CA, USA). Podophyllotoxin (Sigma P4405) was used as control.

[3] = Resazurin-based in vitro cytotoxicity with HepG2 cells; assay type: cell-based, human; settings: HepG2 cells; human hepatocarcinoma cells, 48 h
Method: The HepG2 cells were washed with DPBS (Dulbecco’s PBS without calcium and magnesium, Gibco, Cat #21600-044) and trypsinized with trypsin solution in DPBS. Trypsinization was stopped by adding culture medium, and after being stained with Trypan Blue (SORS Ukraine) cells were counted using a counting chamber (Hausser Scientific, Cat #3500). The cell suspension was placed in a falcon tube containing plating medium DMEM/High glucose with 1% fetal bovine serum, 100 units/mL penicillin, and 100 µg/mL streptomycin. Cells at a density of 250,000 cells/mL were seeded in sterile 384-well plates (Greiner Bio-One, Cat #781091) in a volume of […] and incubated at 37 °C and 5% CO2. Serial dilutions of ten 3-fold dilution steps of test and reference compounds covering a range from 100.0 to 0.005 µM were added to the wells, followed by incubation at 37 °C and 5% CO2 for 48 h. Then, resazurin (50 µM final concentration) was added and plates were incubated for another 3 h. The plates were read with a SpectraMax microplate reader (Molecular Devices Cooperation, Sunnyvale, CA, USA)) using an extinction wavelength of 555 nm and an emission wavelength of 570 nm. IC50 values were calculated using GraphPad Prism 9.0 charting software. Doxorubicin (Sigma Aldrich D1515) was used as control.

[4] = test system: K. pneumoniae ATCC 700603; assay: MIC/MBC microbroth dilution (EUCAST); assay type: cell-based; settings: Klebsiella pneumoniae, ATCC700603
Method: (§1) Minimum inhibitory concentrations (MIC values) were obtained using the microbroth dilution method as stated in the EUCAST guidelines. Tests were conducted on cation adjusted Mueller–Hinton broth (caMHB) or agar (caMHA). These were prepared and stored following the manufacturer’s guidelines. Biological organisms were prepared via growth on either Luria–Bertani (LB) or cation adjusted Mueller–Hinton agar plates. These were grown for 24 h at 37 °C, except for Micrococcus luteus where MICs took longer to grow and as a consequence were read after 48 h once a clear positive control could be observed. For the MIC experiment, the bacteria were prepared using the McFarland 0.5 standard and diluted 1 in 100 or 1 in 10 in caMHB following EUCAST and CSLI guidelines for the preparation of bacteria. Testing of the compounds using the microbroth dilution method took place in 96-well plates. Serial 2-fold dilutions of compounds in caMHB covering a range from 256 µg/mL to 0.25 µg/mL were prepared. Bacteria preparations (McFarland) were added to the compound dilutions, further halving the compound concentrations. The plate was then incubated for 18 h at 37 °C. Controls for the MIC experiments included a bacterial growth (positive) control of bacteria and caMHB only and a media only (negative) control. After incubation, the plates were read, whereby the positive control of bacteria was visible and the negative control was clear of contamination. The last clear well, where there is no growth of bacteria, was counted as the MIC value. […] The lowest concentration without any bacterial growth was counted as the MBC value. The following pathogens were used: Pseudomonas aeruginosa NCTC 13437, Escherichia coli NCTC 13353, Bacillus subtilis 168a, Serratia marcescens NCTC 9940, Micrococcus luteus ATCC 10240, Staphylococcus aureus JE2 USA 300, Acinetobacter baumannii ATCC 19606, and Klebsiella pneumoniae ATCC 700603. A concentration range of 256 µg/mL to 0.25 µg/mL of a combination of ciprofloxacin and meropenem against E. coli 25922 was used as an antibiotic control to ensure correct dilution and performance of the assay.

[5] = test system: P. aeruginosa NCTC 13437; assay: MIC/MBC microbroth dilution (EUCAST); assay type: cell-based; settings: Pseudomonas aeruginosa, NCTC13437
Method: as §1

[6] = test system: S. aureus JE2 USA 300; assay: MIC/MBC microbroth dilution (EUCAST); assay type: cell-based; settings: Staphylococcus aureus, USA300, S. aureus JE2 USA 300
Method: as §1

[7] = test system: S. marcescens NCTC 9940; assay: MIC/MBC microbroth dilution (EUCAST); assay type: cell-based; settings: Serratia marcescens, NCTC9940
Method: as §1

[8] = test system: E. coli NCTC 13353; assay: MIC/MBC microbroth dilution (EUCAST); assay type: cell-based, Escherichia coli; settings: Escherichia coli; for MBC: NCTC13353; for MIC: NCTC13353, read-out: MIC
Method: as §1

[9] = test system: A. baumannii ATCC 19606; assay: MIC/MBC microbroth dilution (EUCAST); assay type: cell-based, Acinetobacter baumannii; settings: Acinetobacter baumannii; for MBC: ATCC19606; for MIC: ATCC19606, read-out: MIC
Method: as §1

[10] = test system: B. subtilis 168a; assay: MIC/MBC microbroth dilution (EUCAST); assay type: cell-based, Bacillus subtilis; settings: Bacillus subtilis, 168A; for MIC: read-out: MIC
Method: as §1

[11] = test system: M. luteus ATCC 10240; assay: MIC/MBC microbroth dilution (EUCAST); assay type: cell-based, Micrococcus luteus; settings: for MBC: read-out: MBC
Method: as §1

[12] = Parallel artificial membrane permeability assay (PAMPA); settings: PAMPA, pH 7.4, Pe, PBS pH 7.4, 200 µM, 5 h, room temperature
Method: With the high-throughput PAMPA the newly synthesized compounds were tested for their passive permeability through cell membranes without the influence of efflux pumps or transporter proteins. The assay was performed using a Corning® Gentest^TM Precoated PAMPA Plate System (Corning, Glendale, AZ, USA) with 96-well polystyrene plates. The bottom of the acceptor plate consists of a porous membrane, whereby the pores are lined with a lipid–oil–lipid triple layer. Stock solutions of each test compound at 10 mM were prepared in DMSO or methanol and diluted with phosphate-buffered saline (PBS at a pH of 7.4) to a final concentration of 200 µM. […] The donor plate (bottom plate) was filled with the compound solutions, whereby all compounds were tested in quadruplicates. Each well of the acceptor plate (top plate) was filled with PBS buffer. Donor and acceptor plates were combined and incubated at room temperature for 5 h. After that, the plates were separated and 150 µL of each well of both plates were transferred to 96-well UV plates (Greiner Bio-One). Absorption at different wavelengths covering a range from 200 to 300 nm was measured using a SpectraMax M3 UV plate reader. […] The plates were analyzed at the wavelength where the R2 value of the calibration curve was higher than 0.99 [47].
Recovery of compounds from donor and acceptor wells (mass retention) was calculated as shown in the equation below. Data were only accepted when recovery exceeded 70%. The equation is as follows:(3) R=1−[cDt×VD+cAt×VA]/(c0×VD) where

[13] = Micrococcus luteus, ATCC10240, M. luteus ATCC 10240, read-out: MIC
[14] = Micrococcus luteus, ATCC10240, M. luteus ATCC 10240

Compound	IC50 [1]	IC50 at 70 h [2]	IC50 at 48 h [3]	MBC [4]	MIC [4]	MBC [5]	MIC [5]	MBC [6]	MIC [6]	MBC [7]	MIC [7]	MBC [8]	MIC [8]	MBC [9]	MIC [9]	MBC [10]	MIC [10]	MIC [11, 13]	Papp at 5 h, 200 µM [12]	MBC [11, 14]	other results
O=C(Nc1ccc(N2CCNCC2)cc1)c1ccccc1Oc1ccccc1 [Compound 64, 2-Phenoxy-N-[4-(piperazin-1-yl)phenyl]benzamide]	2.33 µM	40.6 µM	12.3 µM	> 256 µg/mL	256 µg/mL	> 256 µg/mL	> 256 µg/mL	64 µg/mL	32 µg/mL	> 256 µg/mL	> 256 µg/mL	> 256 µg/mL	> 256 µg/mL	> 256 µg/mL	256 µg/mL	256 µg/mL	128 µg/mL	16 to 64 µg/mL	7.67 ×10⁻⁶ cm/s		MIC ([11]; M. luteus ATCC 10240): 32 µg/mL
Nc1cccc(C(=O)Nc2ccc(N3CCNCC3)cc2)c1Oc1ccc(F)cc1 [Compound 65, 3-Amino-2-(4-fluorophenoxy)-N-[4-(piperazin-1-yl)phenyl]benzamide]	7 µM	157 µM	> 100 µM	> 256 µg/mL	> 256 µg/mL	> 256 µg/mL	> 256 µg/mL	256 µg/mL	256 µg/mL	> 256 µg/mL	> 256 µg/mL	> 256 µg/mL	> 256 µg/mL	> 256 µg/mL	> 256 µg/mL	> 256 µg/mL	> 256 µg/mL	> 256 µg/mL	5.76 ×10⁻⁶ cm/s	> 256 µg/mL	
O=C(c1cccc(C(F)(F)F)c1Oc1ccc(F)cc1)N1CCNCC1 [Compound 52, [2-(4-Fluorophenoxy)-3-(trifluoromethyl)phenyl](piperazin-1-yl)methanon]	23.2 µM	136 µM	> 100 µM	> 256 µg/mL	> 256 µg/mL	> 256 µg/mL	> 256 µg/mL	> 256 µg/mL	> 256 µg/mL	> 256 µg/mL	> 256 µg/mL	> 256 µg/mL	> 256 µg/mL	> 256 µg/mL	256 µg/mL	> 256 µg/mL	> 256 µg/mL	256 µg/mL	8.35 ×10⁻⁶ cm/s	256 µg/mL	
O=C(Nc1ccc(N2CCNCC2)cc1)c1cccc(C(F)(F)F)c1Oc1ccccc1 [Compound 58, 2-Phenoxy-N-[4-(piperazin-1-yl)phenyl]-3-(trifluoromethyl)benzamide]	3.81 µM	25.9 µM	5.8 µM	256 µg/mL	256 µg/mL	> 256 µg/mL	> 256 µg/mL	128 µg/mL	128 µg/mL	> 256 µg/mL	> 256 µg/mL	> 256 µg/mL	> 256 µg/mL	> 256 µg/mL	256 µg/mL	256 µg/mL	128 µg/mL	128 µg/mL	4.98 ×10⁻⁶ cm/s	128 µg/mL	
